Assay results taken from patent publication US9586948B2, “Inhibitors of IRAK4 activity” (MERCK SHARP & DOHME CORP., priority 2012, dated 2017).

The compounds below were run against GST tagged IRAK4 (Homo sapiens (Human), UniProt Q9NWZ3) (assay: Determination of IRAK4 kinase activity (IMAP fluorescence polarization)). Conditions: 0.5 nM GST tagged IRAK4, 100 nM fluorescent peptide substrate RP7030, 100 μM ATP, 30 minutes at 25° C.
Format: biochemical
Protocol: The kinase activity of IRAK4 is determined by its ability to catalyze the phosphorylation of a fluorescent polypeptide substrate. The extent of phosphorylation is measured using IMAP technology (Molecular Devices) where the phosphorylated fluorescent substrate binds to the large M(III)-based nanoparticles which reduces the rotational speed of the substrate and thus increases its fluorescent polarization (FP).
Procedure: A 20 μl reaction mixture contains 10 mM TriHCl, pH 7.2, 0.5 nM GST tagged IRAK4 (SignalChem), 100 nM fluorescent peptide substrate (RP7030, Molecular Devices), 100 μM ATP, 1 mM DTT, 1 mM MgCl2, and 0.01% Tween 20. The reaction is initiated by the addition of ATP. After incubation for 30 minutes at 25° C., 60 μl of Progressive IMAP Reagent (Molecular Devices) is added to stop the reaction. Change in RP7030's FP is determined by a FP reader (Analyst HT, LJL BioSystems).

Chain of GST tagged IRAK4 (Q9NWZ3 whole entry): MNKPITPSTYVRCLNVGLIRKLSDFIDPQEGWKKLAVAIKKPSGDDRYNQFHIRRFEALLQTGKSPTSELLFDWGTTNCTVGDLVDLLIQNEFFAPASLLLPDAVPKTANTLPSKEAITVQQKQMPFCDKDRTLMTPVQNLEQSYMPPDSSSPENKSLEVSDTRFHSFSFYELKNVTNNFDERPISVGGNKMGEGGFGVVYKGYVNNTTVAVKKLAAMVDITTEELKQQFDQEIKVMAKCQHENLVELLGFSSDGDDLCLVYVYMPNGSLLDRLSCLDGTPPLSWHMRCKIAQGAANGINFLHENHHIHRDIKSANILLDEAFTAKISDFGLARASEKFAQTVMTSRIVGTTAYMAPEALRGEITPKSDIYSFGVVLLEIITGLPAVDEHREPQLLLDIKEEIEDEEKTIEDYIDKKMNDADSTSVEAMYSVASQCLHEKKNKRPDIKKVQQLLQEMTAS

Row | Structure (SMILES) | IC50
1 | CN1CCC(c2cccc(C(=O)Nc3cn(C)nc3C(N)=O)n2)=CC1=O [Example 32, N-(3-carbamoyl-1-methyl-1H-pyrazol-4-yl)-1′-methyl-6′-oxo-1′,2′,3′,6′-tetrahydro-[2,4′-bipyridine]-6-carboxamide] | 82 nM
2 | Cn1ncc(NC(=O)c2cccc(-c3ccnc(NCC4CC4)c3)n2)c1C(N)=O [Example 8, N-(5-carbamoyl-1-methyl-1H-pyrazol-4-yl)-2′-(cyclopropylmethylamino)-2,4′-bipyridine-6-carboxamide] | 2720 nM
3 | Cn1cc(NC(=O)c2cccc(C3=CCOCC3)n2)c(C(N)=O)n1 [Example 30, N-(3-carbamoyl-1-methyl-1H-pyrazol-4-yl)-6-(3,6-dihydro-2H-pyran-4-yl)picolinamide] | 426 nM
4 | Cn1cc(NC(=O)c2cccc(-c3cnccc3Cl)n2)c(C(N)=O)n1 [Example 31, N-(3-carbamoyl-1-methyl-1H-pyrazol-4-yl)-4′-chloro-[2,3′-bipyridine]-6-carboxamide] | 620 nM
5 | Cn1cc(NC(=O)c2cccc(-c3ccnc(NCC(F)F)c3)n2)c(C(N)=O)n1 [Example 16, N-(3-carbamoyl-1-methyl-1H-pyrazol-4-yl)-2′-((2,2-difluoroethyl)amino)-[2,4′-bipyridine]-6-carboxamide] | 196 nM
6 | Cn1cc(NC(=O)c2cccc(-c3ccnc(NCC4CC4)c3)n2)c(C(=O)NCc2ccncn2)n1 [Example 47, 2′-((cyclopropylmethyl)amino)-N-(1-methyl-3-((pyrimidin-4-ylmethyl)carbamoyl)-1H-pyrazol-4-yl)-[2,4′-bipyridine]-6-carboxamide] | 4380 nM

Continued, values first:

Row | IC50 | Structure (SMILES)
7 | 1450 nM | Cn1cc(NC(=O)c2ccnc(-c3ccnc(NCC4CC4)c3)c2)c(C(N)=O)n1 [Example 5, N-(3-carbamoyl-1-methyl-1H-pyrazol-4-yl)-2′-(cyclopropylmethylamino)-2,4′-bipyridine-4-carboxamide]
8 | 1900 nM | Cn1cc(NC(=O)c2cccc(-c3ccncc3)n2)c(C(N)=O)n1 [Example 11, N-(3-carbamoyl-1-methyl-1H-pyrazol-4-yl)-2,4′-bipyridine-6-carboxamide]
9 | 101 nM | Cn1cc(NC(=O)c2cccc(-c3ccnc(N)c3)n2)c(C(N)=O)n1 [Example 6, 2′-amino-N-(3-carbamoyl-1-methyl-1H-pyrazol-4-yl)-[2,4′-bipyridine]-6-carboxamide]
10 | 4970 nM | Cn1cc(NC(=O)c2cccc(-c3ccnc(NCC4CC4)c3)n2)c(C(=O)NCCc2ccccn2)n1 [Example 38, 2′-((cyclopropylmethyl)amino)-N-(1-methyl-3-((2-(pyridin-2-yl)ethyl)carbamoyl)-1H-pyrazol-4-yl)-[2,4′-bipyridine]-6-carboxamide]
11 | 1060 nM | Cn1cc(NC(=O)c2cccc(-c3ccnc(NCC4CC4)c3)n2)c(C(=O)NCCN2CCCC2)n1 [Example 35, 2′-((cyclopropylmethyl)amino)-N-(1-methyl-3-((2-(pyrrolidin-1-yl)ethyl)carbamoyl)-1H-pyrazol-4-yl)-[2,4′-bipyridine]-6-carboxamide]
12 | 1100 nM | Cn1cc(NC(=O)c2cncc(-c3ccnc(NCC4CC4)c3)c2)c(C(N)=O)n1 [Example 7, N-(3-carbamoyl-1-methyl-1H-pyrazol-4-yl)-2′-(cyclopropylmethylamino)-3,4′-bipyridine-5-carboxamide]
13 | 201 nM | CNC(=O)c1cccc(-c2cccc(C(=O)Nc3cn(C)nc3C(N)=O)n2)c1 [Example 24, N-(3-carbamoyl-1-methyl-1H-pyrazol-4-yl)-6-(3-(methylcarbamoyl)phenyl)picolinamide]
14 | 535 nM | CN(C)CCCNC(=O)c1nn(C)cc1NC(=O)c1cccc(-c2ccnc(NCC3CC3)c2)n1 [Example 40, 2′-((cyclopropylmethyl)amino)-N-(3-((3-(dimethylamino)propyl)carbamoyl)-1-methyl-1H-pyrazol-4-yl)-[2,4′-bipyridine]-6-carboxamide]
15 | 2190 nM | CN(C)CCCCCNC(=O)c1nn(C)cc1NC(=O)c1cccc(-c2ccnc(NCC3CC3)c2)n1 [Example 37, 2′-((cyclopropylmethyl)amino)-N-(3-((5-(dimethylamino)pentyl)carbamoyl)-1-methyl-1H-pyrazol-4-yl)-[2,4′-bipyridine]-6-carboxamide]
